Test results reported in article PMC4082664 (Alcoholism, clinical and experimental research, 2011).
Like-named read-outs stand apart in the source and are kept apart here.

Experiments:
CYP3A4 [1] = molecular target: T1, CYP3A4 (Homo sapiens, UniProt P08684); details: ref Kumar et al., 2010; cited from earlier work
CYP3A4 [2] = molecular target: T1, CYP3A4; assay: Spectral binding; details: for δAmax (maximum spectral change): 0.5 µM CYP3A4, 25°C, pH 7.4; for Type of spectral binding with CYP3A4 at low concentrations: low concentrations (<0.5 µM), data not shown; for Type of spectral binding with CYP3A4: no ethanol

T1 sequence (P08684 whole entry): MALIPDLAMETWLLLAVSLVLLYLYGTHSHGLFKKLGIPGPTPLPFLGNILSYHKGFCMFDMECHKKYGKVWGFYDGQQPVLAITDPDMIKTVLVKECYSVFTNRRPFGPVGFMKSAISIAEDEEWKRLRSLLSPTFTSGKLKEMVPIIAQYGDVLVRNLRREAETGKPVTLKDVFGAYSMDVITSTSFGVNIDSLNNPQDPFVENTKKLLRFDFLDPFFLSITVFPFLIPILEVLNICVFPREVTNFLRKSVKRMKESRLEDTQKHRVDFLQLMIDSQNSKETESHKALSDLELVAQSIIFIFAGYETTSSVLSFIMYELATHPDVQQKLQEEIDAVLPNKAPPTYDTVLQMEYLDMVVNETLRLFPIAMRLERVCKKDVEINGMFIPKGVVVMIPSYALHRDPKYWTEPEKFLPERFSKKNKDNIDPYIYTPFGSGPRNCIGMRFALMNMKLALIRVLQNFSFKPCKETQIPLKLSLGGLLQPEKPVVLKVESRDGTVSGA

| δAmax (maximum spectral change) (CYP3A4 [2]; 20 mM ethanol) | δAmax (maximum spectral change) (CYP3A4 [2]; No ethanol) | Type of spectral binding with CYP3A4 at low concentrations (CYP3A4 [2]) | Type of spectral binding with CYP3A4 (CYP3A4 [2]) | SMILES | Type of spectral binding with CYP3A4 (CYP3A4 [1]) |
| --- | --- | --- | --- | --- | --- |
|  |  |  |  | Cc1c(O)cccc1C(=O)N[C@@H](CSc1ccccc1)[C@H](O)CN1C[C@H]2CCCC[C@H]2C[C@H]1C(=O)NC(C)(C)C [nelfinavir] | high-affinity type I |
|  |  |  |  | CCO [ethanol] | type I |
| 0.012 ± 0.0003 | 0.015 ± 0.0003 | weak type II | type I | CCC[C@@]1(CCc2ccccc2)CC(O)=C([C@H](CC)c2cccc(NS(=O)(=O)c3ccc(C(F)(F)F)cn3)c2)C(=O)O1 [Tipranavir] |  |
| 0.006 ± 0.0003 | 0.011 ± 0.0001 |  | type I | CC(C)(C)NC(=O)[C@@H]1C[C@@H]2CCCC[C@@H]2CN1C[C@@H](O)[C@H](Cc1ccccc1)NC(=O)[C@H](CC(N)=O)NC(=O)c1ccc2ccccc2n1 [Saquinavir] |  |
| 0.012 ± 0.0002 | 0.013 ± 0.0003 | weak type II | type I | COC(=O)N[C@H](C(=O)N[C@@H](Cc1ccccc1)[C@@H](O)CN(Cc1ccc(-c2ccccn2)cc1)NC(=O)[C@@H](NC(=O)OC)C(C)(C)C)C(C)(C)C [Atazanavir] |  |

| SMILES | δAmax (maximum spectral change) (CYP3A4 [2]; 20 mM ethanol) | δAmax (maximum spectral change) (CYP3A4 [2]; No ethanol) | Type of spectral binding with CYP3A4 at low concentrations (CYP3A4 [2]) | Type of spectral binding with CYP3A4 (CYP3A4 [2]) | Type of spectral binding with CYP3A4 (CYP3A4 [1]) |
| --- | --- | --- | --- | --- | --- |
| CC(C)CN(C[C@@H](O)[C@H](Cc1ccccc1)NC(=O)O[C@H]1CCOC1)S(=O)(=O)c1ccc(N)cc1 [Amprenavir] |  |  |  | did not show detectable spectral binding |  |
